This test has as its target NHE-1 (Na+/H+ exchanger isoform 1) (Homo sapiens, UniProt P19634). Put plainly: BCECF pHi recovery from NH4Cl acid load. It counts as cell-based.

The structures appear in SMILES notation.

Sequence of NHE-1 (Na+/H+ exchanger isoform 1) (P19634 whole entry, canonical isoform): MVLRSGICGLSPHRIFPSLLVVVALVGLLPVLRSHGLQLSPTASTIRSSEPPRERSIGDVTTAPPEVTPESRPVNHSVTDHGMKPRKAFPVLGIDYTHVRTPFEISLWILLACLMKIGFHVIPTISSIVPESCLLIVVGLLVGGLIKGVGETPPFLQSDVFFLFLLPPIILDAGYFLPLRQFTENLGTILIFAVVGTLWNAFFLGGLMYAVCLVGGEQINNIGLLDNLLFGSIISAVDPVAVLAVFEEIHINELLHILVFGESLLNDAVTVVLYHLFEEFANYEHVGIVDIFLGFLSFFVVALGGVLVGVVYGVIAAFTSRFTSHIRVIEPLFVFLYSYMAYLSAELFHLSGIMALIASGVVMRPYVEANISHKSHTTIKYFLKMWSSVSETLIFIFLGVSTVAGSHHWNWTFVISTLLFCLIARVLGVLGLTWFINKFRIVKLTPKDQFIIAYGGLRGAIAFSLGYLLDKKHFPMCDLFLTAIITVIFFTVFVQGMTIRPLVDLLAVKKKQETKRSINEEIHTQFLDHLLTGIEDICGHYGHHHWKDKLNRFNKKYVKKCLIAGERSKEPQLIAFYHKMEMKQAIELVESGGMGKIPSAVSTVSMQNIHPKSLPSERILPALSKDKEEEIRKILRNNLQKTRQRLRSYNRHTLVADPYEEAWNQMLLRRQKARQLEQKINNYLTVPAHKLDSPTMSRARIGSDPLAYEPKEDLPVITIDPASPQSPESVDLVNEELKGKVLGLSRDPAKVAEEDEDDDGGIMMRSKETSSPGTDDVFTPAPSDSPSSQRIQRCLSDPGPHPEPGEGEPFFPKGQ

`CS(=O)(=O)c1cc(C(=O)N=C(N)N)ccc1N1CCCCC1` [HOE694]: the IC50 is approximately 10 nM.
